From PMC9571594, “Development of Semisynthetic Apoptosis-Inducing Agents Based on Natural Phenolic Acids Scaffold: Design, Synthesis and In-Vitro Biological Evaluation” (Molecules, 2022)
Several values for one entry are separate records, joined by “and”; a condition that tells them apart may be missing. Equal values may be shown once. Read-outs that look alike come from different tables or passages of the source.

What was measured:
Format in all cases: cell-based
Caco-2 cancer cell line = test: MTT cell viability assay, Caco-2; conditions: 48 h; for IC50: MTT, average of triplicates, semi-synthesized compounds (Table 3), read-out: IC50 (μM) on Caco-2 cancer cell line
Protocol: MCF-7 cells (Human breast adenocarcinoma), HepG2 (human hepatocellular carcinoma), A549 (human lung adenocarcinoma), Caco-2 (colon carcinoma), PANC-1 (human pancreatic cancer), and Vero cells (derived from normal kidney cells) were supplied by (Holding Company for Biological Products and Vaccines VACSERA; Giza, Egypt). The cells were cultured in PRMI 1640 medium (Lonza, Switzerland) supplemented with 10% fetal bovine serum (Gibco), 1% penicillin and 1% streptomycin (Sigma Aldrich, Saint Louis, MO, USA) at 37 °C under an atmosphere of 5% CO2 and 95% air.
The effect of parent compounds and their derivatives were assessed by (3-(4,5-dimethylthiazol-2-yl)-2,5diphenyl-tetrazolium bromide) MTT assay. […] After a merged sheet of cells developed, the growth media was decanted from the 96-well microtiter and refilled with different concentrations of compounds (µg/mL), and the plate was incubated at 37 °C for 48 h to minimize exposure to the dissolving agent (Supporting Information).
MTT solution (BIO BASIC CANADA INC) was prepared [5 mg/mL in phosphate buffered saline (PBS)], added to each well and incubated for 4 h, then after removing the media, 200 μL of DMSO was added to each well to solubilize the formazan crystals and the optical density of the formazan product was measured at 560 nm using microplate reader (mindray, MR-96A). The results were calculated as the mean of the three independent experiments. […]
Determination of sample cytotoxicity on cells (MTT protocol) […]
well) and incubated at 37°C for 24 hours to develop a complete monolayer sheet.
2- Growth medium was decanted from 96 well micro titer plates after confluent sheet of cells were formed, cell monolayer was washed twice with wash media.
3- two-fold dilutions of tested sample was made in RPMI medium with 2% serum […]
4- 0.1 ml of each dilution was tested in different wells leaving 3 wells as control, receiving only maintenance medium.
5- Plate was incubated at 37°C and examined. Cells were checked for any physical signs of toxicity, e.g. partial or complete loss of the monolayer, rounding, shrinkage, […]
6- MTT solution was prepared (5mg/ml in PBS) (BIO BASIC CANADA INC).
8- 20ul MTT solution were added to each well. Place on a shaking table, 150rpm for 5 minutes, to thoroughly mix the MTT into the media.
10) Dump off the media. (dry plate on paper towels to remove residue if necessary. […] 9 ش - ايلعلا هبضهلا - مطقملا / ىسيئرلا لمعملا […]

Caco-2 cells [1] = test: Annexin V-FITC/PI apoptosis assay by flow cytometry; design: key: % of cells; conditions: annexin-V FITC/PI staining, 24h
Protocol: (§1) In order to determine the percentage of viable, apoptotic and necrotic cells after treatment with our compounds, double-staining with fluorescein isothiocyanate (FITC) and PI was performed. Annexin V-FITC Apoptosis Detection Kit (BioVision, CA, USA) was used. Briefly, cultured Caco-2 were treated with the tested compounds or DMSO for 24h. Cells were then collected by centrifugation at 2000 rpm for 5 min, and the pellet was washed with PBS then centrifuged again at 2000 rpm for 5 min then resuspended in 500μL of the kit’s binding buffer before adding the Annexin V-FITC and PI. The cells were then incubated at room temperature in the dark for 5 min. Annexin V-FITC binding was measured using FACS Calibur flow cytometer (BD biosciences, USA) (Ex = 488 nm, Em = 533 nm, FL1 filter for annexin and FL2 filter for PI).

Caco-2 cells [2] = test: Cell-cycle analysis by flow cytometry; conditions: for %G0–G1 / %G2/M / %S / %Pre-G1: Caco-2 cells; for %G0–G1 / %G2/M / %S: cell-cycle distribution after treatment; for %Pre-G1: Pre-G1 = apoptotic population
Protocol: The potential candidates with anti-tumor effect on the Caco-2 cell line along with a high SI were chosen for cell-cycle analysis. The cell-cycle distribution and cell death were analyzed using Annexin V-FITC/PI staining and flow cytometry (Table 4, Figure 4).
as §1, with “Annexin V-FITC binding was measured using FACS Calibur flow cytometer (BD biosciences, USA) (Ex = 488 nm, Em = 533 nm, FL1 filter for annexin and FL2 filter for PI).” left out
Assay : Cell Cycle Analysis
Kit used : ab139418_Propidium Iodide Flow Cytometry Kit/BD
Assay samples :Cell culture
(§2) Cpd. No. Cpd. No. Cpd. No. Cpd. No.

MMP-2 = test: RT-qPCR gene expression of MMP-2; conditions: for MMP2 Fold Change: Caco2, relative to cont.Caco2 = 1
Protocol: (§3) The treated cells were harvested and the total RNA was extracted using RNeasy Mini Kit (Qiagen) according to the manufacturer’s instruction. The primers of the required genes (Table 6) were used for SYBR Green qRT-PCR using a one-step RT-PCR kit with SYBR Green (Bio-Rad). qRT-PCR was performed on Rotor Gene Q (Qiagen). […] Rotor-Gene 6000 Series Software was used for data analysis. and their HGNC ID was added (Table 6)
(§4) Researcher : Dr/Noura email: mob.
(§5) Reader : Rotorgene RT- PCR system
(§6) Kit used : Qiagen RNA extraction/BioRad syber green PCR MMX
(§7) Assay samples :Cell culture Lysate
as §2

MMP-9 = test: RT-qPCR gene expression of MMP-9; conditions: for MMP9 Fold Change: Caco2, relative to cont.Caco2 = 1
Protocol: as §3, §4, §5, §6, §7, §2

| Compound | IC50 (Caco-2 cancer cell line; Homo sapiens, Caco-2) | Apoptosis Total (Caco-2 cells [1]) | Early Apoptosis (Caco-2 cells [1]) | Necrosis (Caco-2 cells [1]) | %G0–G1 (Caco-2 cells [2]) | %G2/M (Caco-2 cells [2]) | %S (Caco-2 cells [2]) | %Pre-G1 (Caco-2 cells [2]) | further results |
| --- | --- | --- | --- | --- | --- | --- | --- | --- | --- |
| O=C(/C=C/c1ccc(O)c(O)c1)N1CCN(c2ccccc2)CC1 [Compound 3, (E)-3-(3,4-Dihydroxyphenyl)-1-(4-phenylpiperazin-1-yl)prop-2-en-1-one] | 80 µM | – | – | – | – | – | – | – | – |
| O=C(/C=C/c1ccc(O)c(O)c1)Nc1ccc(O)cc1 [Compound 4, (E)-3-(3,4-Dihydroxyphenyl)-N-(4-hydroxyphenyl)acrylamide] | 70 µM | – | – | – | – | – | – | – | – |
| Cc1ccc(NC(=O)/C=C/c2ccc(O)c(O)c2)cc1 [Compound 5, (E)-3-(3,4-Dihydroxyphenyl)-N-(p-tolyl)acrylamide] | 60 µM | 7.56 | 2.59 | 1.04 | 41.52 ± 2.61% | 26.86 ± 2.75% | 31.62 ± 1.79% | 7.56 ± 0.39% | Late Apoptosis (Caco-2 cells [1]): 3.93; %G0–G1 (Caco-2 cells [2]; listed as CA3): 41.52%; %G2/M (Caco-2 cells [2]; listed as CA3): 26.86%; %S (Caco-2 cells [2]; listed as CA3): 31.62%; %Pre-G1 (Caco-2 cells [2]; listed as CA3): 7.56% |
| O=C(/C=C/c1ccc(O)c(O)c1)NC1CCCCC1 [Compound 6, (E)-N-Cyclohexyl-3-(3,4-dihydroxyphenyl)acrylamide] | 50 µM | – | – | – | – | – | – | – | – |
| O=C(/C=C/c1ccc(O)c(O)c1)Nc1ccc(Br)cc1 [Compound 7, (E)-N-(4-Bromophenyl)-3-(3,4-dihydroxyphenyl)acrylamide] | 20 µM | 18.26 | 4.75 | 2.14 | 28.68 ± 1.64% | 44.91 ± 3.42% | 26.41 ± 2.15% | 18.26% and 18.26 ± 1.42% | MMP2 Fold Change (MMP-2): 0.16±0.004 Fold Change; expression of MMP2 (in words) (MMP-2; Figures 8 and 9): greatest inhibition; %G0–G1 (Caco-2 cells [2]; listed as CA6): 28.68%; %G2/M (Caco-2 cells [2]; listed as CA6): 44.91%; %S (Caco-2 cells [2]; listed as CA6): 26.41%; MMP9 Fold Change (MMP-9): 0.29±0.006 Fold Change; expression of MMP9 (in words) (MMP-9; Figures 8 and 9): greatest inhibition |
| COc1ccc(NC(=O)/C=C/c2ccc(O)c(O)c2)cc1 [Compound 8, (E)-N-(4-Methoxyphenyl)-3-(3,4-dihydroxyphenyl)acrylamide] | 80 µM | – | – | – | – | – | – | – | – |
| O=C(/C=C/c1ccc(O)c(O)c1)NCc1ccccc1 [Compound 9, (E)-N-Benzyl-3-(3,4-dihydroxyphenyl)acrylamide] | 30 µM | 9.62 | 3.72 | 1.36 | 38.51 ± 1.95% | 30.05 ± 2.59% | 31.44 ± 2.87% | 9.62 ± 0.37% | Late Apoptosis (Caco-2 cells [1]): 4.54; %G0–G1 (Caco-2 cells [2]; listed as CA9): 38.51%; %G2/M (Caco-2 cells [2]; listed as CA9): 30.05%; %S (Caco-2 cells [2]; listed as CA9): 31.44%; %Pre-G1 (Caco-2 cells [2]; listed as CA9): 9.62% |
| O=C(/C=C/c1ccc(O)c(O)c1)Nc1ccc(Cl)cc1 [Compound 10, (E)-N-(4-Chlorophenyl)-3-(3,4-dihydroxyphenyl)acrylamide] | 9 µM | 23.42 | 7.59 | 3.14 | 29.75 ± 1.73% | 41.98 ± 2.18% | 28.27 ± 1.99% | 23.42% and 23.42 ± 2.12% | %G0–G1 (Caco-2 cells [2]; listed as CA11): 29.75%; %G2/M (Caco-2 cells [2]; listed as CA11): 41.98%; %S (Caco-2 cells [2]; listed as CA11): 28.27% |
| COc1ccc(/C=C/C(=O)N2CCN(c3ccccc3)CC2)cc1O [Compound 12, (E)-3-(3-Hydroxy-4-methoxyphenyl)-1-(4-phenylpiperazin-1-yl)prop-2-en-1-one] | 40 µM | – | – | – | – | – | – | – | – |
| COc1ccc(NC(=O)/C=C/c2ccc(OC)c(O)c2)cc1 [Compound 13, (E)-3-(3-Hydroxy-4-methoxyphenyl)-N-(4-methoxyphenyl)acrylamide] | 80 µM | – | – | – | – | – | – | – | – |
| COc1ccc(NC(=O)/C=C/c2ccc(O)c(OC)c2)cc1 [Compound 16, (E)-3-(4-Hydroxy-3-methoxyphenyl)-N-(4-methoxyphenyl)acrylamide] | 80 µM | – | – | – | – | – | – | – | – |
| COc1ccc(/C=C/C(=O)Nc2ccccc2N)cc1O [Compound 20, (E)-N-(2-Aminophenyl)-3-(3-hydroxy-4-methoxyphenyl)acrylamide] | – | 8.62 | 2.19 | 1.24 | 39.12 ± 2.58% | 26.84 ± 2.34% | 34.04 ± 2.69% | 8.62 ± 0.69% | Late Apoptosis (Caco-2 cells [1]): 5.19; MMP2 Fold Change (MMP-2): 0.68±0.018 Fold Change; apoptotic population compared to the parent compound (Caco-2 cells [2]; Caco-2, in words, versus parent 1 or 2): non-significant decrease; %G0–G1 (Caco-2 cells [2]; listed as FA12): 39.12%; %G2/M (Caco-2 cells [2]; listed as FA12): 26.84%; %S (Caco-2 cells [2]; listed as FA12): 34.04%; %Pre-G1 (Caco-2 cells [2]; listed as FA12): 8.62%; MMP9 Fold Change (MMP-9): 0.45±0.009 Fold Change |
| COc1cccc2c1C(=O)c1c(O)c3c(c(O)c1C2=O)C[C@@](O)(C(=O)CO)C[C@@H]3O[C@H]1C[C@H](N)[C@H](O)[C@H](C)O1 [Doxorubicin] | – | – | – | – | – | – | – | – | IC50 (μM) ± SD Caco-2 (Caco-2 cancer cell line): 0.17 ± 1.1 µM |
| (E)-3-(3-Hydroxy-4-methoxyphenyl)-N-(p-tolyl)acrylamide [Compound 14] | – | 16.51 | 3.99 | 2.26 | – | – | – | 16.51% and 16.51 ± 0.63% | IC50 (Caco-2 cancer cell line): 50 µM |
